Experimental data reported in PMC9236245, “Glycyrrhiza uralensis promote the metabolism of toxic components of Aconitum carmichaeli by CYP3A and alleviate the development of chronic heart failure” (PLoS ONE, 2022).
Values joined by “and” are separate entries in the source; they are usually repeats but may differ in a detail not shown here. Equal values may be shown once.

Assays:
[1] = Metabolism of AC, MA and HA in rat liver microsomes by HPLC; type: in vitro ADME; settings: NADPH
Protocol: Agilent C18 column (4.60 mm × 150 mm, 5μm), mobile phase A was 20 mmol / L ammonium acetate and 0.1% formic acid aqueous solution, mobile phase B was methanol, isocratic elution, A: B = 60:40, flow rate was 1 ml / min, detection wavelength was 240 nm, column temperature was 30°C, injection volume was 20 μL.
1 mg / ML microsome 100 μL, PBS 75 μL and aconitine alkaloids 5 μL (AC, MA and HA: 1 mmol / L) were added. 20 μL NADPH (10 mmol / L) was added to start the reactionand, AC and HA were incubated for 90 min, MA were incubated for 120 min. The reaction was terminated by adding 200 μL glacial acetonitrile, 12 000 r / min at 4°C for 10 min, and 20 μL supernatant was used for HPLC.

[2] = Plasma concentration of AC, MA and HA in rats by LC-MS/MS; type: in vivo, rat; parameters: Plasma concentration: unit not given here; settings: for plasma concentration with compatibility of Glycyrrhizae and Aconitum vs Aconitum alone: 2 mL/kg by gavage; for Plasma concentration: single animals
Protocol: 12 SD rats were randomly divided into Aconitum and Glycyrrhizae combind with Aconitum group, 6 rats in each group, 2 mL / kg was given by gavage respectively.

[3] = Metabolic stability (t1/2, CLint) of AC, MA and HA in RLMs of pretreated rats; settings: SD, rat, microsomes
[4] = in vitro; settings: SD, rat, microsomes
[5] = Aconitum 2 mL/kg gavage, 10 min
[6] = Aconitum 2 mL/kg gavage, 20 min
[7] = Aconitum 2 mL/kg gavage, 30 min
[8] = Aconitum 2 mL/kg gavage, 45 min
[9] = Aconitum 2 mL/kg gavage, 60 min
[10] = Aconitum 2 mL/kg gavage, 90 min
[11] = Aconitum 2 mL/kg gavage, 120 min
[12] = Aconitum 2 mL/kg gavage, 240 min
[13] = Aconitum 2 mL/kg gavage, 360 min
[14] = Aconitum 2 mL/kg gavage, 480 min
[15] = Glycyrrhizae + Aconitum 2 mL/kg gavage, 10 min
[16] = Glycyrrhizae + Aconitum 2 mL/kg gavage, 20 min
[17] = Glycyrrhizae + Aconitum 2 mL/kg gavage, 30 min
[18] = Glycyrrhizae + Aconitum 2 mL/kg gavage, 45 min
[19] = Glycyrrhizae + Aconitum 2 mL/kg gavage, 60 min
[20] = Glycyrrhizae + Aconitum 2 mL/kg gavage, 90 min
[21] = Glycyrrhizae + Aconitum 2 mL/kg gavage, 120 min
[22] = Glycyrrhizae + Aconitum 2 mL/kg gavage, 240 min
[23] = Glycyrrhizae + Aconitum 2 mL/kg gavage, 360 min
[24] = Glycyrrhizae + Aconitum 2 mL/kg gavage, 480 min
[25] = RLMs of rats pretreated with Glycyrrhizae 0.33 g/kg
[26] = RLMs of rats pretreated with Glycyrrhizae 1 g/kg
[27] = RLMs of rats pretreated with Glycyrrhizae 3 g/kg
[28] = RLMs of rats pretreated with Phenobarbital 0.08 g/kg
[29] = t1/2, RLMs of rats pretreated with Glycyrrhizae 0.33 g/kg
[30] = t1/2, RLMs of rats pretreated with Glycyrrhizae 1 g/kg
[31] = t1/2, RLMs of rats pretreated with Glycyrrhizae 3 g/kg
[32] = t1/2, RLMs of rats pretreated with Phenobarbital 0.08 g/kg

| Structure (SMILES) | metabolites produced in RLMs [1] | plasma concentration with compatibility of Glycyrrhizae and Aconitum vs Aconitum alone [2] | Plasma concentration [2, 5] | Plasma concentration [2, 6] | Plasma concentration [2, 7] | Plasma concentration [2, 8] | Plasma concentration [2, 9] | Plasma concentration [2, 10] | Plasma concentration [2, 11] | Plasma concentration [2, 12] | Plasma concentration [2, 13] | Plasma concentration [2, 14] | Plasma concentration [2, 15] | Plasma concentration [2, 16] | Plasma concentration [2, 17] | Plasma concentration [2, 18] | Plasma concentration [2, 19] | Plasma concentration [2, 20] | Plasma concentration [2, 21] | Plasma concentration [2, 22] | other results |
| --- | --- | --- | --- | --- | --- | --- | --- | --- | --- | --- | --- | --- | --- | --- | --- | --- | --- | --- | --- | --- | --- |
| CCN1C[C@]2(COC)[C@H](O)C[C@H](OC)[C@@]34[C@@H]5C[C@@]6(O)[C@H](OC(=O)c7ccccc7)[C@@H]5[C@@](OC(C)=O)([C@@H]([C@H](OC)[C@H]23)[C@@H]14)[C@@H](O)[C@@H]6OC [AC, aconitine] | three metabolites (A1-A3) | significantly lower | 0.0562 and 0.0808 and 0.0292 and 0.0385 and 0.0141 | 0.0945 and 0.121 and 0.0589 and 0.0443 and 0.0407 | 0.0925 and 0.117 and 0.0557 and 0.0722 and 0.05 | 0.118 and 0.156 and 0.082 and 0.0566 and 0.0273 | 0.13 and 0.176 and 0.0973 and 0.0545 and 0.0474 | 0.143 and 0.138 and 0.108 and 0.0529 and 0.0439 | 0.0793 and 0.127 and 0.0603 and 0.0355 and 0.024 | 0.0629 and 0.0516 and 0.0251 and 0.0305 and 0.0211 | 0.0287 and 0.0253 and 0.00749 and 0.0187 and 0.0173 | 0.0164 and 0.00823 and 0.0095 and 0.00724 and 0.00602 | 0.0175 and 0.0293 and 0.0191 and 0.0122 and 0.0147 | 0.0115 and 0.059 and 0.0448 and 0.017 and 0.0239 | 0.0218 and 0.0596 and 0.0401 and 0.018 and 0.0426 | 0.0355 and 0.0389 and 0.0637 and 0.0227 and 0.0397 | 0.0309 and 0.0518 and 0.0337 and 0.0343 and 0.0443 | 0.018 and 0.039 and 0.0371 and 0.0238 and 0.0457 | 0.0163 and 0.0373 and 0.0236 and 0.0131 and 0.0446 | 0.00197 and 0.0253 and 0.00871 and 0.00772 and 0.0267 | Plasma concentration [2, 23]: 0.00413 and 0.00482 and 0 and 0.00225 and 0.0062; Plasma concentration [2, 24]: 0 (4×) and 0.00207; microsomal CLint at 25 µM ([3]; RLMs of Control rats): 10.8 ± 0.4 µL/min/mg; microsomal CLint at 25 µM [3, 25]: 14.7 ± 0.23 µL/min/mg; microsomal CLint at 25 µM [3, 26]: 15.5 ± 0.46 µL/min/mg; microsomal CLint at 25 µM [3, 27]: 11.6 ± 0.4 µL/min/mg; microsomal CLint at 25 µM [3, 28]: 16.3 ± 0.61 µL/min/mg; half-life at 25 µM ([3]; t1/2, RLMs of Control rats): 4.28 ± 0.159 h; half-life at 25 µM [3, 29]: 3.15 ± 0.05 h; half-life at 25 µM [3, 30]: 2.99 ± 0.0877 h; half-life at 25 µM [3, 31]: 3.99 ± 0.138 h; half-life at 25 µM [3, 32]: 2.84 ± 0.108 h |
| COC[C@@]12CC[C@H](OC)[C@]34C(C([C@H](OC)[C@H]13)[C@]1(OC(C)=O)[C@H]3[C@@H](OC(=O)c5ccccc5)[C@](O)(C[C@H]34)[C@@H](OC)[C@@H]1O)N(C)C2 [HA, hypaconitine] | two metabolites | significantly lower | 0.964 and 1.77 and 0.583 and 0.492 and 0.28 | 1.07 (2×) and 1.95 and 0.668 and 0.566 | 1.2 and 2.66 and 1.06 and 0.923 and 0.551 | 1.22 and 2.65 and 1.35 and 0.88 and 0.451 | 1.83 and 3.39 and 1.29 and 0.737 and 0.573 | 2.02 and 2.54 and 1.07 and 0.724 and 0.474 | 1.44 and 2.32 and 0.775 and 0.501 and 0.434 | 0.658 and 0.936 and 0.168 and 0.375 and 0.151 | 0.287 and 0.417 and 0.0407 and 0.175 and 0.0302 | 0.104 and 0.179 and 0.00087 and 0.0398 and 0 | 0.519 and 1.06 and 0.945 and 0.416 and 0.07 | 0.52 and 1.66 and 1.4 and 0.661 and 0.18 | 0.774 and 1.59 and 1.79 and 1.06 and 0.53 | 1.02 and 1.61 and 1.74 and 0.809 and 0.75 | 1.15 and 1.58 and 1.52 and 0.84 and 0.77 | 0.845 and 1.4 and 1.33 and 0.925 and 0.66 | 0.763 and 1.16 and 1.07 and 0.744 and 0.75 | 0.288 and 0.492 and 0.287 and 0.316 and 0.924 | Plasma concentration [2, 23]: 0.34 and 0.239 and 0.0767 and 0.225 and 0.0462; Plasma concentration [2, 24]: 0 and 0.104 and 0.0428 and 0.0921 and 0.181; microsomal CLint ([4]; RLMs of Control rats): 10.5 ± 0.23 µL/min/mg; microsomal CLint [4, 25]: 12.1 ± 0.23 µL/min/mg; microsomal CLint [4, 26]: 13.6 ± 0.4 µL/min/mg; microsomal CLint [4, 27]: 11.6 ± 0.4 µL/min/mg; microsomal CLint [4, 28]: 14 ± 0.4 µL/min/mg; half-life ([4]; t1/2, RLMs of Control rats): 4.39 ± 0.095 h; half-life [4, 29]: 3.81 ± 0.0717 h; half-life [4, 30]: 3.4 ± 0.1 h; half-life [4, 31]: 3.99 ± 0.138 h; half-life [4, 32]: 3.3 ± 0.0943 h |
